Structures can show the parent of a compound that is named as a salt.
Experiment: 31P NMR evidence for guanidinium-phosphonate binding (addition of amphiphile or comparator to MePO3K2)
Conditions: for change of the 31P signal of the phosphonate on addition (shift and broadening, in words): FIGS. 11A-D
Source text: Guanidinium binds to phosphonate through a salt bridge that is buttressed by a bidentate hydrogen bonding system FIG. 10. This interaction is generally stable within a wide range of pH values. Thus, guanidinium-functionalized amphiphiles (29a-c) should form complexes with phosphonates in aqueous buffer. We show here the interaction between amphipile (29a) and MePO3K2 using ^31P NMR, FIGS. 11A-D, which has been used as a probe for phosphate binding to several types of cations. […] This broadening effect is more pronounced as additional compound (29a) is added. The change in the shape of the peak is consistent with reduced tumbling associated with increased size or reversible association of compound (29a) with MePO3K2, which indicates complexation between the guanidinium species and the phosphonate group. […] Thus, guanidinium compound (29a) is not merely protonating the phosphonate in FIG. 11A. […] Urea is structurally similar to guanidinium and can potentially complex a phosphonate in a manner similar to compound (29a) (FIG. 10). In the presence of HCl, similar chemical behavior is expected when MePO3K2 is treated with urea as when it is treated with compound 29.

SMILES | change of the 31P signal of the phosphonate on addition (shift and broadening, in words) | 31P Chemical shift of MePO3K2 (MePO3K2 + 1 eq of additive) | 31P Half-Height Width of MePO3K2 (MePO3K2 + 1 eq of additive) | 31P Chemical shift of MePO3K2 (MePO3K2 + 2 eq of additive) | 31P Half-Height Width of MePO3K2 (MePO3K2 + 2 eq of additive) | 31P Chemical shift of MePO3K2 (MePO3K2 + 3 eq of additive) | 31P Half-Height Width of MePO3K2 (MePO3K2 + 3 eq of additive) | 31P chemical shift of protonated MePO3H2 (in the presence of HCl, FIG. 11B, equivalents not given) | 31P Chemical shift of MePO3K2 (MePO3K2 + 4 eq of additive) | 31P Half-Height Width of MePO3K2 (MePO3K2 + 4 eq of additive) | 31P Chemical shift of MePO3K2 (MePO3K2 + 1 eq urea + 2 eq HCl) | 31P Half-Height Width of MePO3K2 (MePO3K2 + 1 eq urea + 2 eq HCl) | 31P Chemical shift of MePO3K2 (MePO3K2 + 4 eq urea + 2 eq HCl) | 31P Half-Height Width of MePO3K2 (MePO3K2 + 4 eq urea + 2 eq HCl)
Cl [HCl] | remains sharp and shifts downfield | 27.8 ppm | 3.8 Hz | 29.9 ppm | 3.4 Hz | 30.4 ppm | 3.4 Hz | 30.4 ppm |  |  |  |  |  | 
Cl.N [NH4Cl] | small downfield shift like HCl, but did not broaden the signal | 21.8 ppm | 3.6 Hz |  |  |  |  |  | 22.1 ppm | 4.2 Hz |  |  |  | 
NC(N)=O [urea, Urea] | do not broaden |  |  |  |  |  |  |  |  |  | 27.6 ppm | 3.3 Hz | 27.7 ppm | 3.6 Hz
